Laboratory results published in patent US20230151003A1, “COMPOUNDS AND METHODS OF USE” (Exelixis, Inc., priority 2020, published 2023).

Columns and labels:
KDR = KDR (Homo sapiens, UniProt P35968); assay: KDR autophosphorylation ELISA in HUVEC cells; assay type: cell-based; design: endogenous in cells; host or cells: HUVEC (Lonza #C2519A); settings: Table 3 Cellular Activities, VEGF165-stimulated, phospho-KDR ELISA
In short: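 Serum-starved (24 h) primary HUVEC were pretreated 1 h with compounds (8-point dilution, 0.3% DMSO final), then stimulated 5 min with 100 ng/mL VEGF165. Lysate phospho-KDR quantified by sandwich ELISA against a phospho-KDR standard; IC50 by 4-parameter fit, normalised to stimulated DMSO and unstimulated controls.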

AXL = molecular target: T1, AXL (Homo sapiens, UniProt P30530); assay: AXL autophosphorylation ELISA in A-172 cells; assay type: cell-based; settings: Table 3 Cellular Activities, Gas6-stimulated, phospho-AXL ELISA
T1 construct: endogenous in cells; host or cells: A-172 glioblastoma cells (ATCC #CRL-1620)
T1 sequence (P30530 26-894): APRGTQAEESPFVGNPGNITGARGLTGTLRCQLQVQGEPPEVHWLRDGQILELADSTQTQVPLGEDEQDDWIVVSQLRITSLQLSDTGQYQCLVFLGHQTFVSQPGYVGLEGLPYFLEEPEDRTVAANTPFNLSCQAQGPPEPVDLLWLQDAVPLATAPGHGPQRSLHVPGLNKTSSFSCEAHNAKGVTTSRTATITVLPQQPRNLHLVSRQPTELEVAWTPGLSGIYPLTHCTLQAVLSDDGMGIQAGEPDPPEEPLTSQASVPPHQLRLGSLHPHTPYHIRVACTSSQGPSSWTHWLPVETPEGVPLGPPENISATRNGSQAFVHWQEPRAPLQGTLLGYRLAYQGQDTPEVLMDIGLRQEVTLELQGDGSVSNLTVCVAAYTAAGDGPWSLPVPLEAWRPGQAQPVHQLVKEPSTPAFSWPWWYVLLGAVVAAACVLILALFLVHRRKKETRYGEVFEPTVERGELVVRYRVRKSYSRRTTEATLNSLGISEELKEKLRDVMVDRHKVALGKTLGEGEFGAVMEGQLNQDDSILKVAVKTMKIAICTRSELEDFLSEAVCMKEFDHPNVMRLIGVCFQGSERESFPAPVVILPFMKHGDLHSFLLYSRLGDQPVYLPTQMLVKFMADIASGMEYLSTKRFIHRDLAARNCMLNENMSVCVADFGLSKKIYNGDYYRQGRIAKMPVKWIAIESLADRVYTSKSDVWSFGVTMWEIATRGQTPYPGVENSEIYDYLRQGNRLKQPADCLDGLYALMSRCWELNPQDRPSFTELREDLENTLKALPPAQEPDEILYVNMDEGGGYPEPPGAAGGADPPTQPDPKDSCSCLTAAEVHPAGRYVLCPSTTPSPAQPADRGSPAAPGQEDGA
In short: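 A-172 glioblastoma cells serum-starved 24 h, treated 1 h with compounds (8-point dose curve, 0.3% DMSO), then stimulated with 1 μg/mL Gas6 for 15 min. Lysate phospho-AXL quantified by ELISA against a standard; IC50 from 4-parameter logistic fit, normalised to DMSO and reference-inhibitor controls.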

Chain of KDR (P35968 20-1356): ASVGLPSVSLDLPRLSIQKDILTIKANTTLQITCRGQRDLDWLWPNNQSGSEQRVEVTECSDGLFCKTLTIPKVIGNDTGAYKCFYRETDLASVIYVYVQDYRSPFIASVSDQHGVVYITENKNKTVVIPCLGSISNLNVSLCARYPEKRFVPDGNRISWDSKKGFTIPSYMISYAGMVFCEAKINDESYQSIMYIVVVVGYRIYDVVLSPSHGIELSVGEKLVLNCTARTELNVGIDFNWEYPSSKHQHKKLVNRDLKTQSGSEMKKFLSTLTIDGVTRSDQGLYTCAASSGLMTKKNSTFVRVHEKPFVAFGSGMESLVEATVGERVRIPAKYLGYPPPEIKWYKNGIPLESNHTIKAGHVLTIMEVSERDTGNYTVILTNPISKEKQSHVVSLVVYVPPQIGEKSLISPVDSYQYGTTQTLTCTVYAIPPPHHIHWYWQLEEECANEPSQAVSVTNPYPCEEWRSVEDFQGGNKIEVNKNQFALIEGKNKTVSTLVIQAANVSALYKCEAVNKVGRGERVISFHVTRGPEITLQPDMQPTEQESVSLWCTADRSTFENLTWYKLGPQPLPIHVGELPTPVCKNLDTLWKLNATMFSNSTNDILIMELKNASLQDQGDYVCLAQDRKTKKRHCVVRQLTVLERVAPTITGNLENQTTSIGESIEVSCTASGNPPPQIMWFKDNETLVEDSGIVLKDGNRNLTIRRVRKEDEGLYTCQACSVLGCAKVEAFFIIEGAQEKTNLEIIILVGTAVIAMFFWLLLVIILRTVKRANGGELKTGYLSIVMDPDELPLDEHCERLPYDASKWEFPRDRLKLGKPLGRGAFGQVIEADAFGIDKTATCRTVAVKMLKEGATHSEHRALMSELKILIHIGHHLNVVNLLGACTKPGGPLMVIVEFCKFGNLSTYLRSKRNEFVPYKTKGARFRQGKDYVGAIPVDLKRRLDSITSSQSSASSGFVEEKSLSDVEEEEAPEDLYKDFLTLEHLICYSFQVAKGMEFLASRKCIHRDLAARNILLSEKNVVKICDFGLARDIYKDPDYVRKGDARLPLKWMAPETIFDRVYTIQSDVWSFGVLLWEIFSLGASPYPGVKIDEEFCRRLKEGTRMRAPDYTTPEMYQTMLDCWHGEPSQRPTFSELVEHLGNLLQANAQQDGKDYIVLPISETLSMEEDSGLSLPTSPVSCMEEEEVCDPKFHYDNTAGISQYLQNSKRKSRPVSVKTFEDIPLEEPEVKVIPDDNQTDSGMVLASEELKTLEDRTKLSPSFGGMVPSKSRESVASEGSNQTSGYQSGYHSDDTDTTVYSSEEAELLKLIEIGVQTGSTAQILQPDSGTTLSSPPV

Question: How did the IC50 (KDR) turn out when CCc1ccc(-c2c(C)ncc(C(=O)Nc3ccc(Oc4ccnc5cc(OC)c(OC)nc45)c(F)c3)c2O)o1 [Compound 153, N-[4-[(6,7-Dimethoxy-1,5-naphthyridin-4-yl)oxy]-3-fluorophenyl]-5-(5-ethylfuran-2-yl)-4-hydroxy-6-methylpyridine-3-carboxamide] was run?
Answer: The IC50 was ≤ 100 nM.

Question: And the IC50 (AXL)?
Answer: Its IC50 is ≤ 100 nM.

Question: Which results are given for COCc1nc(C)c(-c2ccc(C)o2)c(O)c1C(=O)Nc1ccc(Oc2ccnc3cc(OC)c(OC)nc23)c(F)c1 [Compound 117, N-[4-[(6,7-Dimethoxy-1,5-naphthyridin-4-yl)oxy]-3-fluorophenyl]-4-hydroxy-2-(methoxymethyl)-6-methyl-5-(5-methylfuran-2-yl)pyridine-3-carboxamide]?
Answer: IC50 (KDR): ≤ 100 nM; IC50 (AXL): ≤ 100 nM

Question: COc1cnc2c(Oc3ccc(NC(=O)c4cnc(C)c(-c5ccc(C)s5)c4O)cc3F)ccnc2c1 [Compound 101, N-[3-Fluoro-4-[(7-methoxy-1,5-naphthyridin-4-yl)oxy]phenyl]-4-hydroxy-6-methyl-5-(5-methyl-2-thienyl) pyridine-3-carboxamide] was tested. Which IC50 (KDR) did it give?
Answer: The IC50 was ≤ 100 nM.

Question: And the IC50 (AXL)?
Answer: The IC50 was ≤ 100 nM.

Question: Which IC50 (KDR) does the source give for COc1cc2nccc(Oc3ccc(NC(=O)c4cnc(C)c(-c5ccnn5C)c4O)cc3F)c2nc1OC [Compound 104] here?
Answer: Its IC50 is ≤ 100 nM.

Question: And the IC50 (AXL)?
Answer: Its IC50 is ≤ 100 nM.

Question: How did the IC50 (KDR) turn out when COc1cc2nccc(Oc3ccc(NC(=O)c4cnc(C)c(-c5ccc(C)o5)c4O)cc3F)c2nc1OC [Compound 92, N-[4-[(6,7-Dimethoxy-1,5-naphthyridin-4-yl)oxy]-3-fluoro-phenyl]-4-hydroxy-6-methyl-5-(5-methyl-2-furyl)pyridine-3-carboxamide] was run?
Answer: Its IC50 is ≤ 100 nM.

Question: And the IC50 (AXL)?
Answer: The IC50 was ≤ 100 nM.

Question: With COc1cc2nccc(Oc3ccc(NC(=O)c4c(C)nc(C)c(-c5ccoc5)c4O)cc3F)c2nc1OC [Compound 112, N-[4-[(6,7-Dimethoxy-1,5-naphthyridin-4-yl)oxy]-3-fluoro-phenyl]-5-(3-furyl)-4-hydroxy-2,6-dimethyl-pyridine-3-carboxamide] as the molecule, how does the IC50 (KDR) read?
Answer: The IC50 was ≤ 100 nM.

Question: What about the IC50 (AXL) of the same molecule?
Answer: Its IC50 is ≤ 100 nM.

Question: For COc1cc2nccc(Oc3ccc(NC(=O)c4c(C)ncc(-c5cccs5)c4O)cc3F)c2nc1OC [Compound 123, N-[4-[(6,7-Dimethoxy-1,5-naphthyridin-4-yl)oxy]-3-fluorophenyl]-4-hydroxy-2-methyl-5-thiophen-2-ylpyridine-3-carboxamide], which IC50 (KDR) is on record?
Answer: Its IC50 is ≤ 100 nM.

Question: And the IC50 (AXL)?
Answer: Its IC50 is ≤ 100 nM.

Question: Which results are given for CCc1ccc(-c2c(C)nc(C)c(C(=O)Nc3ccc(Oc4ccnc5cc(OC)c(OC)nc45)c(F)c3)c2O)o1 [Compound 147, N-[4-[(6,7-Dimethoxy-1,5-naphthyridin-4-yl)oxy]-3-fluorophenyl]-5-(5-ethylfuran-2-yl)-4-hydroxy-2,6-dimethylpyridine-3-carboxamide]?
Answer: IC50 (KDR): ≤ 100 nM; IC50 (AXL): ≤ 100 nM

Question: How did the IC50 (KDR) turn out when COc1cc2nccc(Oc3ccc(NC(=O)c4c(C)nc(C)c(-c5sccc5C)c4O)cc3F)c2nc1OC [Compound 139, N-[4-[(6,7-Dimethoxy-1,5-naphthyridin-4-yl)oxy]-3-fluorophenyl]-4-hydroxy-2,6-dimethyl-5-(3-methylthiophen-2-yl)pyridine-3-carboxamide] was run?
Answer: The IC50 was ≤ 100 nM.

Question: And the IC50 (AXL)?
Answer: Its IC50 is ≤ 100 nM.

Question: C=CCc1ccc(-c2c(C)ncc(C(=O)Nc3ccc(Oc4ccnc5cc(OC)c(OC)nc45)c(F)c3)c2O)o1 [Compound 155, N-[4-[(6,7-Dimethoxy-1,5-naphthyridin-4-yl)oxy]-3-fluorophenyl]-4-hydroxy-6-methyl-5-(5-prop-2-enylfuran-2-yl)pyridine-3-carboxamide] was tested. Which IC50 (KDR) did it give?
Answer: Its IC50 is ≤ 100 nM.

Question: What about the IC50 (AXL) of the same molecule?
Answer: Its IC50 is ≤ 100 nM.

Question: For COc1cc2nccc(Oc3ccc(NC(=O)c4cnc(C)c(-c5ccc(C(C)C)o5)c4O)cc3F)c2nc1OC [Compound 154, N-[4-[(6,7-Dimethoxy-1,5-naphthyridin-4-yl)oxy]-3-fluorophenyl]-4-hydroxy-6-methyl-5-(5-propan-2-ylfuran-2-yl)pyridine-3-carboxamide], which IC50 (KDR) is on record?
Answer: Its IC50 is ≤ 100 nM.

Question: What about the IC50 (AXL) of the same molecule?
Answer: Its IC50 is ≤ 100 nM.
